Data set [1] deals with non-transformed African Green Monkey kidney epithelial (BSC-1) cells. The data set is described as follows: Mitogenic response of BSC-1 cells (cell number counted in a hemocytometer after 4 days). In kind it is cell-based. The conditions noted are these: for mitogenic activity of excipient without NX001: 20 mM histidine or 8.8% sucrose, alone or together, diluted 160-fold, FIG. 3A. As for the experimental part: Various lots of unformulated NX001 can be assayed for bioactivity using the mitogenic response of BSC-1 cells as an indicator (see, for instance, U.S. Pat. No. 6,096,706). In this example, two lots of NX001 peptide (Lots PPL-WGF0501A and lot PPL WGF0801) were tested. Varying amounts of the two peptides were added to near-confluent monolayers of non-transformed African Green Monkey kidney epithelial (BSC-1) cells, and the number of cells was counted in a hemocytometer 4 days later.
Each formulation was reconstituted with 1.0 mL water, and was swirled to dissolve the contents. Each solution was then be diluted to 0.125 mg/mL with water. Aliquots of 8 μL each was added to triplicate wells of BSC-1 cells to yield final concentrations of NX001 from 0.05 to 0.4 μg/mL. The plates were incubated at 37° C. for 4 days, and then cells was counted. A third lot of NX001 (PPL-WGF0801) that is not formulated and not lyophilized was dissolved and diluted in water and was used as positive control.
To investigate whether excipients alone or in combination might modify the mitogenic activity, NX001 was added to 20 mM histidine, 8.8% sucrose or the combination and the solutions were diluted to 0.125 mg/mL. Each of the near confluent monolayers of BSC-1 cells in 5 ml DMEM containing 40 μM biotin and 0.5% calf serum received either 8 μl of water, 8 μl of an excipient, or 0.2 μg/ml of PPL-WGF0801 in a final volume of 8 μl of 8.8% sucrose or 20 mM histidine (pH 5.5), or both.
An experiment to determine whether the pH of formulated NX001 affected bioactivity was performed. In this experiment, NX001 (lot PPLWGF0801) was used as a positive control and was dissolved in water to […], diluted 1/160 with water to 0.125 mg/mL, and 8 μL was added to assay plates to a final concentration of 0.2 μg/mL. (see FIG. 4, bar 1).
NX001 (lot PPLWGF0801) was dissolved to 20 mg/mL in either water or PBS, diluted to 0.125 mg/mL in water or PBS as specified, and 8 μL was then added to assay plates to a final concentration of […].
To insure that formulation of NX001 yielded a solution for injection that was as physiological as possible, the formulation of NX001 was adjusted to provide a neutral, iso-osmotic preparation. The adjusted formulation contains 20 mg/mL NX001, 20 mM histidine, 200 mM sucrose at a pH of 7.25, or 80 mg/mL NX001, 20 mM histidine, 15 mM sucrose, pH 7.25. Vials of formulated and lyophilized NX001 at either 80 mg/mL or 20 mg/mL were reconstituted with 1 mL water and diluted to […] before bioassay.

Data set [2] is described as follows: Stability of neutral lyophilized NX001 formulation, 12 months storage. The class given is physicochemical. The protocol: The stability of NX001 formulations was also evaluated. The stability of a lot of NX001 was monitored for 12 months at storage temperatures of 5° C. and 25° C. Appearance of lyophilized cake, reconstitution time, appearance of the reconstituted solution, pH, identity of the peptide, potency and purity of the peptide, and residual moisture were evaluated.
The evaluated parameters of neutral formulations of NX001 were not changed following 12 months storage at temperatures of 5° C. and 25° C.

The nature of data set [3]: pH of histidine/sucrose solutions after addition of NX001. The class given is physicochemical. The conditions noted are these: 20 mM histidine. As for the experimental part:
Next, 20 mM histidine, containing 8.8% sucrose was prepared and the pH was adjusted to 5.5 with HCl. Similarly, additional solutions of 20 mM histidine containing 8.8% sucrose were prepared and the pH was adjusted to 7.5 and 9.0. These solutions were diluted 1/160 and 8 μL aliquots added to plates of BSC-1 cells. As shown in FIG. 4 (bars 2, 3, 4), the solutions were not mitogenic themselves. NX001 was dissolved in each of solution to 0.125 mg/mL.

Setting [4] is: 5° C., After 12 months of storage.
[5] abbreviates: 25° C., After 12 months of storage.

In the case of `OC[C@H]1O[C@@](CO)(O[C@H]2O[C@H](CO)[C@@H](O)[C@H](O)[C@H]2O)[C@@H](O)[C@@H]1O` [sucrose], the “mitogenic activity of excipient without NX001” value in data set [1] is “did not exhibit mitogenic activity”.
On to “AQPYPQGNHEASYG [NX001, growth factor peptide designated NX001; PPL-WGF codes are lots of it]”, for which the Cake appearance result in data set [2] (setting [4]) is given as “White cake”; in data set [2] (5° C., Initial) it was “White cake”; in data set [2] (setting [5]), “White cake”; in data set [2] (25° C., Initial) it was “White cake”. Moreover, the “Potency (% of NX001 recovered in main peak compared to stated vial concentration)” value in data set [2] (setting [4]) worked out at 99.6%; in data set [2] (5° C., Initial), 102%; in data set [2] (setting [5]), 97.9%; in data set [2] (25° C., Initial) it was 102%. In addition, the Purity in data set [2] (setting [4]) is listed as 98.8%; in data set [2] (5° C., Initial) it was 98.8%; in data set [2] (setting [5]), 98.4%; in data set [2] (25° C., Initial), 98.8%. Also, the Reconstituted appearance entry in data set [2] (setting [4]) was “Clear, colorless”; in data set [2] (5° C., Initial), “Clear, colorless”; in data set [2] (setting [5]), “Clear, colorless”; in data set [2] (25° C., Initial) it was “Clear, colorless”. Besides, the Reconstitution time worked out at 64 s in data set [2] (setting [4]); 45 s in data set [2] (5° C., Initial); 72 s in data set [2] (setting [5]); 45 s in data set [2] (25° C., Initial). For the same compound, the Residual moisture in data set [2] (setting [4]) is listed as 0.80%; in data set [2] (5° C., Initial), 0.71%; in data set [2] (setting [5]), 1.05%; in data set [2] (25° C., Initial) it was 0.71%. Further, the Total % impurities is 1.2% in data set [2] (setting [4]); 1.2% in data set [2] (5° C., Initial); 1.6% in data set [2] (setting [5]); 1.2% in data set [2] (25° C., Initial). Also, the pH turned out to be 7.2 in data set [2] (setting [4]); 7.2 in data set [2] (5° C., Initial); 7.3 in data set [2] (setting [5]); 7.2 in data set [2] (25° C., Initial). Also, the figures for the “pH of solution after dissolving NX001” value in data set [3] (8.8% sucrose adjusted to pH 5.5 before NX001), in data set [3] (8.8% sucrose adjusted to pH 7.5 before NX001) and in data set [3] (8.8% sucrose adjusted to pH 9.0 before NX001) were below 5.0, around 5.5 and around 6.5, respectively. The cell growth result in data set [1] (NX001 0.2 μg/mL added separately from histidine/sucrose solutions of pH 5.5, 7.5, 9.0, FIG. 4 bars 8, 9, 10) is “increased cell growth to the same extent as the positive control alone”. Also, the growth-promoting activity result in data set [1] (NX001 0.2 μg/ml in the presence of 20 mM histidine (pH 5.5) alone, FIG. 3B) was “abolished”; in data set [1] (NX001 0.2 μg/ml in the presence of histidine plus sucrose, FIG. 3B) it was “abolished”. For the same compound, the “increase in cell number” value in data set [1] (NX001 0.2 μg/ml in the presence of 8.8% sucrose, FIG. 3B) was 23%; in data set [1] (NX001 alone, 0.2 μg/ml, FIG. 3B), 36%; in data set [1] (NX001 dissolved in PBS and diluted in water, 0.125 μg/mL, FIG. 5 bar 4), “increased cell number by the same amount”; in data set [1] (NX001 dissolved in histidine/sucrose and diluted in PBS (pH 7.25), FIG. 5 bar 7) it was above 24%; in data set [1] (lot PPL-WGF0501A dissolved in PBS immediately before assay, FIG. 6 closed circles), around 30%. In addition, the “increase in growth of BSC-1 cells” value in data set [1] (NX001 dissolved and diluted in water, 0.125 μg/mL, FIG. 5 bar 3) is recorded as 24%. The mitogenicity entry in data set [1] (NX001 dissolved in 20 mM histidine, 8.8% sucrose, resulting pH <5.0, ~5.5, ~6.5, not neutralized, FIG. 4 bars 5, 6, 7) is “not mitogenic”; in data set [1] (NX001 in 20 mM histidine, 8.8% sucrose neutralized with NaOH to pH 7.5 before dilution in water, FIG. 4 bars 11, 12, 13) it was “mitogenic to the same extent as the positive control”; in data set [1] (formulated at 20 mg/mL in 20 mM histidine, 254 mM sucrose, pH 6.5, lyophilized, reconstituted with water, 0.05 to 0.4 μg/mL, FIG. 2), “not mitogenic”. The mitogenic activity entry in data set [1] (NX001 dissolved in histidine/sucrose (final pH 5.5), diluted in water, FIG. 5 bar 5) was “inactive”; in data set [1] (NX001 dissolved in histidine/sucrose, neutralized with NaOH to pH 7.5, diluted in water, FIG. 5 bar 6), “active”; in data set [1] (lot PPL-WGF0501A dissolved in 20 mM histidine, 200 mM sucrose, pH 7.25 immediately before assay, FIG. 6 open circles) it was “active”. Moreover, the maximal mitogenic response in data set [1] (unformulated NX001 peptide lots, BSC-1 cells, FIG. 1) is around 26%.
For the compound `N[C@@H](Cc1c[nH]cn1)C(=O)O` [histidine], the “mitogenic activity of excipient without NX001” value in data set [1] is on record as “did not exhibit mitogenic activity”.
As for “gly-tyr-glu-ser-pro-ala-his-gly-tyr-gln-ala-pro-asn-gln (GYESPAHGYQAPNQ) [Scrambled NX001 peptide, 14-amino acid peptide including the same amino acids as NX001, but in scrambled order, reference compound]”, the “promotion of cell growth” value in data set [1] (FIG. 6 closed squares) is “did not promote cell growth”.

Source of the values: patent publication US20140287995A1, “STABLE PHARMACEUTICAL FORMULATIONS OF GROWTH FACTOR PEPTIDES” (THE UNIVERSITY OF CHICAGO, priority 2011, published 2014).
